Test results published in ChEMBL document CHEMBL3046212, “Synthesis and immunostimulating activity of C-pseudonucleosides containing N-phenyl thiazolidin-4-one” (2013).

What was measured:
Format in all cases: functional, Splenocyte
[1] = Immunostimulatory activity in Balb/c mouse splenocytes assessed as increase in conA-induced T cell proliferation at 5 uM after 72 hrs by MTT assay relative to control
[2] = Immunostimulatory activity in Balb/c mouse splenocytes assessed as increase in conA-induced T cell proliferation at 10 uM after 72 hrs by MTT assay relative to control
[3] = Immunostimulatory activity in Balb/c mouse splenocytes assessed as increase in conA-induced T cell proliferation at 25 uM after 72 hrs by MTT assay relative to control
[4] = Immunostimulatory activity in Balb/c mouse splenocytes assessed as increase in conA-induced T cell proliferation at 50 uM after 72 hrs by MTT assay relative to control
[5] = Immunostimulatory activity in Balb/c mouse splenocytes assessed as increase in conA-induced T cell proliferation at 100 uM after 72 hrs by MTT assay relative to control

Question: Which results are given for `Cc1cccc(N2C(=O)CS[C@H]2[C@H]2O[C@H](CO)[C@@H](O)[C@@H]2O)c1`?
Answer: Activity [1]: 149.2%; Activity [2]: 142.1%; Activity [3]: 152.4%; Activity [4]: 158.7%; Activity [5]: 169.8%

Question: Which results are given for `O=C1CS[C@@H]([C@H]2O[C@H](CO)[C@@H](O)[C@@H]2O)N1c1cccc(Cl)c1`?
Answer: Activity [1]: 139.7%; Activity [2]: 138.2%; Activity [3]: 130.3%; Activity [4]: 121.5%; Activity [5]: 126%

Question: Which results are given for `Cc1ccc(N2C(=O)CS[C@@H]2[C@H]2O[C@H](CO)[C@@H](O)[C@@H]2O)cc1`?
Answer: Activity [1]: 91.2%; Activity [2]: 110%; Activity [3]: 95.6%; Activity [4]: 104%; Activity [5]: 105.6%

Question: Which Activity [1] does the source give for `O=C1CS[C@@H]([C@H]2O[C@H](CO)[C@@H](O)[C@@H]2O)N1c1ccc(Cl)cc1` here?
Answer: 100%

Question: What about the Activity [2] of the same molecule?
Answer: 101.2%

Question: What about the Activity [3] of the same molecule?
Answer: 102.2%

Question: And the Activity [4]?
Answer: 112.3%

Question: And the Activity [5]?
Answer: 112.4%

Question: What does the source list for `COc1ccc(N2C(=O)CS[C@H]2[C@H]2O[C@H](CO)[C@@H](O)[C@@H]2O)cc1`?
Answer: Activity [2]: 106.8%; Activity [3]: 106.8%; Activity [4]: 103.2%; Activity [5]: 99.2%

Question: With `O=C1CS[C@H]([C@H]2O[C@H](CO)[C@@H](O)[C@@H]2O)N1c1ccc(Cl)cc1` as the molecule, how does the Activity [1] read?
Answer: 101.6%

Question: What about the Activity [2] of the same molecule?
Answer: 91.5%

Question: And the Activity [3]?
Answer: 87.6%

Question: And the Activity [4]?
Answer: 30.9%

Question: What about the Activity [5] of the same molecule?
Answer: 107.1%

Question: With `CCOC(=O)c1ccc(N2C(=O)CS[C@@H]2[C@H]2O[C@H](CO)[C@@H](O)[C@@H]2O)cc1` as the molecule, how does the Activity [1] read?
Answer: 132.5%

Question: And the Activity [2]?
Answer: 177%

Question: And the Activity [3]?
Answer: 126.2%

Question: And the Activity [4]?
Answer: 206.3%

Question: What about the Activity [5] of the same molecule?
Answer: 180.2%

Question: For `COc1cccc(N2C(=O)CS[C@H]2[C@H]2O[C@H](CO)[C@@H](O)[C@@H]2O)c1`, which Activity [1] is on record?
Answer: 146%

Question: What about the Activity [2] of the same molecule?
Answer: 134.1%

Question: And the Activity [3]?
Answer: 156.3%

Question: What about the Activity [4] of the same molecule?
Answer: 147.6%

Question: What about the Activity [5] of the same molecule?
Answer: 162.7%

Question: With `COc1ccc(N2C(=O)CS[C@@H]2[C@H]2O[C@H](CO)[C@@H](O)[C@@H]2O)cc1` as the molecule, how does the Activity [1] read?
Answer: 108.8%

Question: What about the Activity [2] of the same molecule?
Answer: 105.2%

Question: What about the Activity [3] of the same molecule?
Answer: 97.2%

Question: What about the Activity [4] of the same molecule?
Answer: 93.6%

Question: What about the Activity [5] of the same molecule?
Answer: 99.6%

Question: With `Cc1cccc(N2C(=O)CS[C@@H]2[C@H]2O[C@H](CO)[C@@H](O)[C@@H]2O)c1` as the molecule, how does the Activity [1] read?
Answer: 163.5%

Question: And the Activity [2]?
Answer: 155.6%

Question: And the Activity [3]?
Answer: 157.9%

Question: And the Activity [4]?
Answer: 134.9%

Question: And the Activity [5]?
Answer: 160.3%

Question: Which Activity [1] does the source give for `Cc1ccc(N2C(=O)CS[C@H]2[C@H]2O[C@H](CO)[C@@H](O)[C@@H]2O)cc1` here?
Answer: 84.9%

Question: What about the Activity [2] of the same molecule?
Answer: 83.7%

Question: What about the Activity [3] of the same molecule?
Answer: 86.1%

Question: And the Activity [4]?
Answer: 96.3%

Question: What about the Activity [5] of the same molecule?
Answer: 95.2%

Question: Which results are given for `CCOC(=O)c1ccc(N2C(=O)CS[C@H]2[C@H]2O[C@H](CO)[C@@H](O)[C@@H]2O)cc1`?
Answer: Activity [1]: 153.2%; Activity [2]: 136.5%; Activity [3]: 161.9%; Activity [4]: 136.5%; Activity [5]: 142.9%

Question: With `COc1cccc(N2C(=O)CS[C@@H]2[C@H]2O[C@H](CO)[C@@H](O)[C@@H]2O)c1` as the molecule, how does the Activity [1] read?
Answer: 17.6%

Question: What about the Activity [2] of the same molecule?
Answer: 165.1%

Question: And the Activity [3]?
Answer: 129.3%

Question: And the Activity [4]?
Answer: 158.7%

Question: What about the Activity [5] of the same molecule?
Answer: 125.4%

Question: Which Activity [1] does the source give for `O=C1CS[C@H]([C@H]2O[C@H](CO)[C@@H](O)[C@@H]2O)N1c1cccc(Cl)c1` here?
Answer: 162.2%

Question: What about the Activity [2] of the same molecule?
Answer: 155.6%

Question: What about the Activity [3] of the same molecule?
Answer: 158.7%

Question: And the Activity [4]?
Answer: 161.1%

Question: What about the Activity [5] of the same molecule?
Answer: 144.4%
